Like-named read-outs stand apart in the source and are kept apart here.
Test system: NL-RLuc virus
Test: Inhibition of HIV replication (NL-RLuc virus in MT-2 cells, luciferase readout)
Assay type: cell-based
Settings: Human immunodeficiency virus 1, MT2, 120 h
Source text: Inhibition of HIV replication: A recombinant NL-RLuc proviral clone was constructed in which a section of the nef gene from NL4-3 was replaced with the Renilla Luciferase gene. This virus is fully infectious and can undergo multiple cycles of replication in cell culture. In addition, the luciferous reporter provides a simple and easy method for quantitating the extent of virus growth and consequently, the antiviral activity of test compounds. The plasmid pNLRLuc contains the proviral NL-Rluc DNA cloned into pUC18 at the Pvull site. The NL-RLuc virus was prepared by transfection of 293T cells with the plasmid pNLRLuc. Transfections were performed using the LipofectAMINE PLUS kit from Invitrogen (Carlsbad, Calif.) according to the manufacturer and the virus generated was titered in MT-2 cells. For susceptibility analyses, the titrated virus was used to infect MT-2 cells in the presence of compound, and after 5 days of incubation, cells were processed and quantitated for virus growth by the amount of expressed luciferase. Assay media was RPMI 1640 supplemented with 10% heat inactivated fetal bovine serum (FBS), 100 units/ml penicillin G/100 units/ml streptomycin, 10 mM HEPES buffer pH 7.55 and 2 mM L-glutamine. The results from at least 2 experiments were used to calculate the EC50 values. Luciferase was quantitated using the Dual Luciferase kit from Promega (Madison, Wis.). Susceptibility of viruses to compounds was determined by incubation in the presence of serial dilutions of the compound. The 50% effective concentration (EC50) was calculated by using the exponential form of the median effect equation where (Fa)=1/[1+(ED50/drug conc.)^m] (Johnson V A, Byington R T. Infectivity Assay. In Techniques in HIV Research. ed. Aldovini A, Walker BD. 71-76. New York: Stockton Press.1990). Activity equal to A refers to a compound having an EC50<100 nM, while B and C denote compounds having an EC50 between 100 nM and 1 uM (B) or >1 uM (C).

Compound	EC50 (read-out: Activity)	EC50 (read-out: EC50 μM)
Cc1cc(N2CCC(C)(C)CC2)c([C@H](OC(C)(C)C)C(=O)O)c(C)n1 [Example 27, (S)-2-(tert-Butoxy)-2-(4-(4,4-dimethylpiperidin-1-yl)-2,6-dimethylpyridin-3-yl)acetic acid]	> 1 µM	–
C=Cc1c(C)nc(C)c([C@H](OC(C)(C)C)C(=O)O)c1N1CCC(C)(C)CC1 [Example 28, (S)-2-(tert-Butoxy)-2-(4-(4,4-dimethylpiperidin-1-yl)-2,6-dimethyl-5-vinylpyridin-3-yl)acetic acid]	0.1 to 1 µM	–
CCc1c(C)nc(C)c([C@H](OC(C)(C)C)C(=O)O)c1N1CCC(C)(C)CC1 [Example 29, (S)-2-(tert-Butoxy)-2-(4-(4,4-dimethylpiperidin-1-yl)-5-ethyl-2,6-dimethylpyridin-3-yl)acetic acid]	< 0.1 µM	0.068 µM
C/C=C/c1c(C)nc(C)c([C@H](OC(C)(C)C)C(=O)O)c1N1CCC(C)(C)CC1 [Example 30, (S,E)-2-(tert-Butoxy)-2-(4-(4,4-dimethylpiperidin-1-yl)-2,6-dimethyl-5-(prop-1-en-1-yl)pyridin-3-yl)acetic acid]	0.1 to 1 µM	–
Cc1nc(C)c([C@H](OC(C)(C)C)C(=O)O)c(N2CCC(C)(C)CC2)c1C1CC1 [Example 31, (S)-2-(tert-Butoxy)-2-(5-cyclopropyl-4-(4,4-dimethylpiperidin-1-yl)-2,6-dimethylpyridin-3-yl)acetic acid]	0.1 to 1 µM	0.118 µM
Cc1ncc(C2=CCN(CCCc3ccc(F)cc3)CC2)c(N2CCC(C)(C)CC2)c1[C@H](OC(C)(C)C)C(=O)O [Example 32, (S)-2-(tert-Butoxy)-2-(4-(4,4-dimethylpiperidin-1-yl)-1′-(3-(4-fluorophenyl)propyl)-6-methyl-1′,2′,3′,6′-tetrahydro-[3,4′-bipyridin]-5-yl)acetic acid]	< 0.1 µM	0.002 µM
